Measured values reported in ChEMBL document CHEMBL1765050, “Cyclopropyl and isopropyl derivatives of 11-cis and 9-cis retinals at C-9 and C-13: subtle steric differences with major effects on ligand efficacy in rhodopsin” (J Nat Prod, 2011).

Target: Rhodopsin (Bos taurus) (UniProt P02699)
Assay: Agonist activity at bovine rhodopsin assessed as opsin mediated cognate G protein transducer activation by fluorescence assay
Assay type: functional
Set-up: concentration or dose not given beside the values

Chain of Rhodopsin (Bos taurus) (P02699 whole entry): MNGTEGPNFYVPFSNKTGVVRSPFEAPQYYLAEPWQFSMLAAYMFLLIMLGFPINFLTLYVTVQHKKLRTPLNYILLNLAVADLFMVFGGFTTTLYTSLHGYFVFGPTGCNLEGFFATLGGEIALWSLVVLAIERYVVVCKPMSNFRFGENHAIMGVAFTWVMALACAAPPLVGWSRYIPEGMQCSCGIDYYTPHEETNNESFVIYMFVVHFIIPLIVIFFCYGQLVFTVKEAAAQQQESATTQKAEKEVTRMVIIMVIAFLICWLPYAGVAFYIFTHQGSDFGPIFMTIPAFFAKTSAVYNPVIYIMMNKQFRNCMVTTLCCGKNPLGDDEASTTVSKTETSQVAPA

SMILES	Activity [%]
CC1=C(/C=C/C(C)=C\C=C\C(=C\C=O)C2CC2)C(C)(C)CCC1	53
CC1=C(/C=C/C(=C/C=C\C(C)=C\C=O)C2CC2)C(C)(C)CCC1	83
CC1=C(/C=C/C(C)=C/C=C\C(C)=C\C=O)C(C)(C)CCC1	100
CC1=C(/C=C/C(=C\C=C\C(C)=C\C=O)C2CC2)C(C)(C)CCC1	60

Results, then the compound that gave them:

Activity [%]	SMILES
104	CC1=C(/C=C/C(C)=C\C=C\C(C)=C\C=O)C(C)(C)CCC1
139	CC1=C(/C=C/C(C)=C\C=C\C(=C\C=O)C(C)C)C(C)(C)CCC1
